Data reported in paper PMC11951252 (RSC Advances, 2025).
Values joined by “and” are separate entries in the source; they are usually repeats but may differ in a detail not shown here. Identical values can stand only once.

Key:
MDAMB-231 = assay: Antiproliferative MTT assay, MDAMB-231; type: cell-based, human; settings: MDAMB-231 breast cancer cell line
HER2-TK = HER2-TK (Homo sapiens, UniProt P04626); assay: HER2 inhibitory assay; type: biochemical
PC-3 = assay: Antiproliferative MTT assay, PC-3; type: cell-based; settings: Homo sapiens, PC-3, read-out: Antiproliferative activity IC50 ± SEM, PC-3
MCF-7 = assay: Antiproliferative MTT assay, MCF-7; type: cell-based, human; settings: Homo sapiens, MCF7, read-out: Antiproliferative activity IC50 ± SEM, MCF-7
[1] = tested on: four human cancer cell lines (HCT-116, PC-3, MCF-7, MDAMB-231); assay: Antiproliferative MTT assay, average over four cancer cell lines; type: cell-based; settings: Homo sapiens, average IC50 of the four cancer cell lines
HCT-116 = assay: Antiproliferative MTT assay, HCT-116; type: cell-based; settings: Homo sapiens, HCT-116, read-out: Antiproliferative activity IC50 ± SEM, HCT-116
EGFR-TK = EGFR-TK (Homo sapiens, UniProt P00533); assay: EGFR inhibitory assay; type: biochemical; settings: for IC50: EGFR IC50 ± SEM
MDA-MB 231 cancer cells = assay: Cell cycle analysis; type: cell-based, human
MDA-MB 231 cells = assay: Apoptosis induction analysis; type: cell-based, human
BRAF^V600E = settings: read-out: BRAF^V600E IC50; cited from earlier work

Chain of EGFR-TK (P00533 669-1210): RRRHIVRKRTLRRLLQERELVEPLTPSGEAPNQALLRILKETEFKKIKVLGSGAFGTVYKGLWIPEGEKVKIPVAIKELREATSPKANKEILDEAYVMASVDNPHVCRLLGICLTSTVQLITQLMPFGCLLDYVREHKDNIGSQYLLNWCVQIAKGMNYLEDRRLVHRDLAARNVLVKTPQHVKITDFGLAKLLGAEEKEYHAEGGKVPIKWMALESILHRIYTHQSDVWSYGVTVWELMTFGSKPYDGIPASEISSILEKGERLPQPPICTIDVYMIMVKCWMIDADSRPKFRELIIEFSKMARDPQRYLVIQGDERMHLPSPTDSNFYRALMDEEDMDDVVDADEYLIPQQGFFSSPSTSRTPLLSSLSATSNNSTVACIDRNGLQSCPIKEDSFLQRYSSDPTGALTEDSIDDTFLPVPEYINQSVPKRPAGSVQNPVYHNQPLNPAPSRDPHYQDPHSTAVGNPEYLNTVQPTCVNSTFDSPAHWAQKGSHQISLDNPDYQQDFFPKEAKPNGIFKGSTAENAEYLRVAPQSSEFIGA
Chain of HER2-TK (P04626 676-1255 limits assumed): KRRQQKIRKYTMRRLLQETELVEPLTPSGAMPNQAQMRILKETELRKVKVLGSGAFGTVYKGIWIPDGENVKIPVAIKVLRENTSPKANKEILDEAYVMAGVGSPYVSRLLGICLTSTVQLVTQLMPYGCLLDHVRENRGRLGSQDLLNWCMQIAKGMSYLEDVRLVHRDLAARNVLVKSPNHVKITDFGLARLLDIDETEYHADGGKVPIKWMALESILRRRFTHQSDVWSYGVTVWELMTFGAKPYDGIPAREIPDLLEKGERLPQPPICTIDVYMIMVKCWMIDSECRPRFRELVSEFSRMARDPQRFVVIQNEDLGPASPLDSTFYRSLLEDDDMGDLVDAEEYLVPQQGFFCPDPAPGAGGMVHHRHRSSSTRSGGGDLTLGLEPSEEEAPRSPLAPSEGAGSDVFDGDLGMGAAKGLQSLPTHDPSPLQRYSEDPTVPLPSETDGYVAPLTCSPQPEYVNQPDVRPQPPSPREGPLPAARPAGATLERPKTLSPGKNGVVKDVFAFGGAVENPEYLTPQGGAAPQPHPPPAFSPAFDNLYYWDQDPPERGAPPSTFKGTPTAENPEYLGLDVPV

| IC50 (HER2-TK; HER2 IC50 ± SEM, Table 3) [µM] | IC50 (PC-3) [µM] | IC50 (MCF-7) [µM] | GI50 [1] [µM] | IC50 (HCT-116) [µM] | times less effective as EGFR inhibitors than erlotinib (EGFR-TK) | IC50 (EGFR-TK) | IC50 (HER2-TK; HER2 IC50, as printed in text) [µM] | SMILES | times more potent than sorafenib (MDAMB-231) [times] | Cell cycle analysis, Comment (MDA-MB 231 cancer cells; MDA-MB 231, 24 h, 25 μM) | DNA content % G0–G1 (MDA-MB 231 cancer cells; MDA-MB 231, 24 h, 25 μM) [%] | DNA content % G2/M (MDA-MB 231 cancer cells; MDA-MB 231, 24 h, 25 μM) [%] | DNA content % S (MDA-MB 231 cancer cells; MDA-MB 231, 24 h, 25 μM) [%] | percentage of pre-G1 apoptosis (MDA-MB 231 cancer cells; MDA-MB 231, 24 h incubation) [%] | early apoptosis enhanced more than late apoptosis, fold (MDA-MB 231 cells; MDA-MB 231) [fold] | Apoptosis Early (MDA-MB 231 cells; MDA-MB cancer cells, 24 h) | Apoptosis Late (MDA-MB 231 cells; MDA-MB cancer cells, 24 h) | Apoptosis Total (MDA-MB 231 cells; MDA-MB cancer cells, 24 h) | Necrosis (MDA-MB 231 cells; MDA-MB cancer cells, 24 h) | IC50 (BRAF^V600E) [µM] |
| --- | --- | --- | --- | --- | --- | --- | --- | --- | --- | --- | --- | --- | --- | --- | --- | --- | --- | --- | --- | --- |
| 0.505 | 9.08 ± 0.8 | 6.94 ± 0.4 | 7 | 8.67 ± 0.9 | at least 10 times | 0.799 µM and 1.78 µM | – | O=C(CN1CCN(c2ccc(Cl)cc2)CC1)Nc1ccc(C(=O)C=Cc2ccco2)cc1 [4n, 2-(4-(4-Chlorophenyl)piperazin-1-yl)-N-(4-(3-(furan-2-yl)acryloyl)phenyl)acetamide] | 1.6 | – | – | – | – | – | – | – | – | – | – | – |
| 0.101 | 13 ± 1 | 5.05 ± 0.4 | 7 | 6.47 ± 0.4 | – | 0.209 µM | 0.061 | COc1ccc(N2CCN(CC(=O)Nc3ccc(C4=NN(C(C)=O)C(c5cc(OC)c(OC)c(OC)c5)C4)cc3)CC2)cc1 (stereo not drawn) [5d, N-(4-(1-Acetyl-5-(3,4,5-trimethoxyphenyl)-4,5-dihydro-1H-pyrazol-3-yl)phenyl)-2-(4-(4-methoxyphenyl)piperazin-1-yl)acetamide] | 2.7 | Cell cycle arrest @ G1 | 78.53 | 3.36 | 18.11 | 78.53 | 5 | 17.13 | 8.89 | 29.59 | 3.57 | – |
